Reference: US5356886A, “Antiviral phosphono-alken derivatives of purines” (Beecham Group p.l.c., priority 1990, dated 1994)
Values after ≈ are worked out from the molar mass of the structure shown.

Tests used:
Format in all cases: cell-based
HSV-2 = assay: Plaque Reduction Test for Herpes Simplex Virus 2 (strain MS) in MRC-5 cells; details: Human alphaherpesvirus 2, MRC5
Method: MRC-5 cells were grown to confluence in 24 well multi-dishes (well diameter=1.5 cm). The drained cell monolayers were each infected with approximately 50 infectious particles of herpes simplex virus 1 (HSV-1; strain SC16) or herpes simplex virus 2 (HSV-2; strain MS) in 100 μl of phosphate-buffered saline. The virus was adsorbed for 1 hour at room temperature. After adsorption, residual inoculum was removed from each well and replaced with 0.5 ml of Eagle's MEM containing 5% newborn calf serum and 0.9% agarose (A37). Once the agarose had set, dilutions of the test compound, which had been prepared in Eagle's MEM (containing 5% newborn calf serum), were added, each well receiving 0.5 ml of liquid overlay. The test compound was diluted to give the following series of concentrations: 200, 60, 20, 6 . . . 0.06 μg/ml; final concentrations in the assay ranged, therefore, between 100 μg/ml and 0.03 μg/ml. The infected cultures were incubated at 37° C. in a humidified atmosphere of 5% CO2 until plaques were clearly visible (usually 1 day).
Cultures from 1 and 2 were fixed in formal saline, the agarose overlays were carefully washed off, and then the cell monolayers were stained with carbol fuchsin. A stereo microscope was used to count plaques. The IC50 (concentration of drug which inhibits the number of plaques formed by 50% relative to the number of plaques observed in virus control monolayers) of the test compound was calculated. In addition, the monolayers were examined for evidence of drug-induced cytotoxicity; the minimum concentration at which cytotoxicity occurs was recorded.

Visna Virus = assay: CPE Inhibition Test (Established Monolayer) for Lentiviruses, visna virus (strain K184) in sheep choroid plexus cells; details: Visna-maedi virus; visna virus strain K184, SCP cells; read-out: MIC (minimum concentration giving complete protection of the cell monolayers)
Method: 3×10^4 sheep choroid plexus (SCP) cells were plated into individual wells of a 96 well microtitre plate in 100 μl of Eagle's MEM with Hanks' salts containing 10% heat inactivated foetal calf serum (FCS). When monolayers had become established (after 1 or 2 days growth) they were washed with 200 μl of maintenance medium (Eagle's MEM with Hanks' salts containing 0.5% FCS) and infected with 100 μl of visna virus (strain K184) in maintenance medium (30 TCID50/ml). Test samples were diluted with maintenance medium in further 96 well microtitre plates over the range 200-0.06 μg/ml by 3-fold dilution steps. 100 μl of the diluted samples was then transferred directly onto virus-infected monolayers (final concentration range therefore 100-0.03 μg/ml) and […] containing 5% CO2 until virus-induced CPE was maximal in the untreated virus-infected controls (usually 12-14 days). The plates were fixed with formal saline and stained with crystal violet. Virus-induced CPE was then scored microscopically and the minimum concentration of sample giving complete protection of the cell monolayers (MIC) determined.

FIV = assay: Test for Feline Immunodeficiency Virus (FIV Glasgow 8) in Crandell Feline Kidney cells; details: read-out: MIC (minimum concentration of drug inhibiting syncitial production)
Method: Drug stocks were diluted to the appropriate concentration, in medium (e.g. 10 mg/ml to 200 μg/ml). 150 μl of each drug was dispersed in triplicate, across the top row of a microtitre plate (150 μl of media for virus and cell control, vc and cc). 100 μl of medium was dispersed into all other wells. The wells were serially diluted moving down the plate, removing 50 μl from each well and transferring to the next row. 50 μl was discarded from the bottom wells.
Trypsinisation was carried out from a confluent cell monolayer of Crandell Feline Kidney cells, in 10% trypsin, followed by resuspension in media at 1×10^6 per ml, ensuring that a single cell suspension is achieved. (Media: 90% 1×RPMI, 25 mM hepes buffer; 10% Foetal calf serum; 2% Glutamine; 2% penecillin/streptomycin.)
FIV Glasgow 8 virus was diluted to 4× the required virus challenge in medium (40 TCID50 /ml). The virus infected medium was mixed with an equal volume of cell suspension, 100 μl of which was aliquoted into each well of the drug plate, except cell control. 100 μl of cell suspension at 5×10^4 per ml was added to the latter. This gives a final cell concentration of 2.5×10^4 per ml, and drug range 100-0.03 μg/ml. The plates were incubated at 37° C., 5% CO2 in an air humidified incabator for 11-14 days. The cells were fixed by immersing the plates in formoli saline (10% formaldehyde; 10% 1.5M NaCl; 80% water) for 1 hour minimum. The cells were stained with 10% crystal violet for 15 minutes.
The assay was scored by looking for presence of syncitia and, virus induced cytopathic effect in the cell monolayers, under a microscope. Results are given as the minimum concentration of drug inhibiting syncitial production, minimum inhibitory concentration, MIC.

For `Nc1nc2c(ncn2OCC/C=C/P(=O)(O)O)c(=O)[nH]1` [Example 1, (E)-9-(4-phosphonobut-3-enyloxy)guanine], the IC50 (HSV-2) was under 3 µg/mL, the MIC (Visna Virus) was under 0.003 µg/mL and the MIC (FIV) was 0.01 µg/mL (≈ 0.0332 µM).
